Measured values reported in patent US11752127B2, “Methods and compositions for treatment of anxiety in animals” (CANOPY GROWTH CORPORATION, priority 2019, dated 2023).

Columns and labels:
[1] = Blood CBD and 7-COOH-CBD levels pre- and post-car ride (mass spectrometry); assay type: in vivo, Beagle dogs
Procedure: (§1) Anxiety behavioral data measures were recorded, as was serum cortisol levels (an anxiety/stress-related biomarker), heart rate and blood cannabidiol content. Subjects were dosed once during each arm, approximately four (4) hours prior to the car ride test. Blood samples for measurements of cortisol and CBD were taken on two occasions during each arm. The first was on day 1, a no treatment day. The second was within 10 minutes (±2 minutes) following the car ride. Both blood samples were taken as closely as possible to the same time of day. Heart rate was continuously measured during the car ride. There were seven days of washout between treatment days. For the sake of scheduling, the 16 dogs were tested in two cohorts, with eight (8) dogs tested per cohort day. The test schedule that followed is outlined in Table 2.
Blood was collected for health profiling on day −8 and 2 mL and was placed into each a potassium oxalate/sodium fluoride, SST and K2EDTA tube. Whole blood collections for the purpose of cortisol and cannabidiol analysis were taken on eight occasions. Four (4) ml blood samples were collected from a suitable vein according to standard operating procedure for baseline 1 day prior to the car and 10 minutes (±2 minutes) after each car ride for cortisol and cannabidiol analysis. Prior to the baseline sample, subjects were placed in a quiet metabolic cage for 30 minutes (±2 minutes) for a more accurate reading of cortisol at rest. Two (2) ml blood were placed into a 2 ml SST tube and allowed to set until clotted. Serum was separated by centrifugation (2800-3200 rpm for 10 minutes at room temperature) and removed into a new serum blood tube. One aliquot of serum (0.5 ml) was placed into a cryovial and stored at approximately −80° C. for future analysis as necessary. […] Samples were analysed by mass spectrometry for the presence of cannabidiols and in particular CBD.
Post-car ride CBD levels were analyzed as a function of Dose using non-parametric analysis of variance.
Pre-car ride CBD levels were analyzed as a function of previous Dose using non-parametric analysis of variance. […]

[2] = tested on: car ride model of fear and anxiety; assay: Car-ride model of fear and anxiety in dogs (10-minute car ride); assay type: in vivo, Beagle dogs; conditions: for Cortisol response to car ride: differed significantly from baseline
Procedure: A Car-Ride Model for fear and anxiety was used to assess the anxiolytic properties of a cannabidiol formulation on dog subjects. One of the objectives of this study was to determine the anxiolytic effectiveness of orally dosed CBD-enriched cannabidiol formulation at three dose levels, namely at: 4 mg/kg CBD; 12 mg/kg CBD; and 25 mg/kg CBD as compared to a placebo control in a car ride model of fear and anxiety.
Enrollment into the study was based on the subject's baseline activity response to a car ride. Twenty-four (24) Beagle Dogs were screened for car-ride induced elevation of blood cortisol. The initial screening occurred over a 10-day period. Sixteen of the 24 dogs were selected to be used in the subsequent efficacy trial. The schedule of operations for the baseline screen is outlined in Table 1.
The subsequent dose-finding efficacy trial was a blinded pre-clinical trial with sixteen (16) dogs. Dogs were allocated to four treatment groups each containing four (4) dogs based on the baseline response to the car-ride model. In the car-ride model, the dogs were placed in a travel crate secured in the back of a transport vehicle. Anxiety was assessed by monitoring behavior and heart rate during the car ride, and by blood cortisol measures after the car ride. A Williams design was used in which 3 dose levels of the drug and a placebo control were evaluated, with every dog being tested on every condition. Thus, the study had four cycles: four (4) groups of four (4) dogs each, with two (2) males and two (2) females per group, were given four (4) cycles of either one of three increasing doses of a cannabidiol-enriched liquid formulation or the vehicle (medium chain triglyceride solution without cannabidiol), each in a volume of 4 mL. Actives or placebo were administered on the fourth day of each cycle, four (4) hours (±15 minutes) before exposure to a 10-minute car ride in a controlled setting. Each dosing cycle was seven (7) days, so there were seven (7) days between doses.
as §1
Treatment conditions as follows: High Dose: 25 mg/kg CBD; Medium Dose: 12 mg/kg CBD; Low Dose: 4 mg/kg CBD; Placebo control: MCT (Medium Chain Triglyceride) solution. The animals were handled and cared for as similarly as possible throughout the study. The study used a Williams design. The experimental unit were one individual dog and the number of dogs per treatment sequence was four (4), each containing two (2) males and two (2) females.
The study was a blinded pre-clinical trial carried out in a standardized environment. Sixteen (16) dogs (8 males and 8 females) were included in the study. A Williams design, in which all test subjects receive all three dosages and one placebo were used. Four (4) groups of four (4) dogs each, with two (2) males and two (2) females per group, will be given four (4) cycles of either one of three increasing doses of a Cannabidiol-enriched liquid formulation or the vehicle (medium chain triglyceride solution without cannabidiol), each in a volume of 4 mL. Actives or placebo were administered on the fourth day of each cycle, four (4) hours (±15 minutes) before exposure to a 10-minute car ride. […]

[3] = tested on: thunderstorm noise-induced model of anxiety; assay: Thunderstorm noise-induced model of anxiety after chronic (28-day) CBD administration; assay type: in vivo, dogs
Procedure: The present study was conducted to evaluate the potential antianxiety effects of CBD after chronic administration using a thunderstorm model of anxiety. A placebo-controlled 28-day CBD dosing, behavioral and safety study was conducted in which the anti-anxiety behavioral effects of chronic CBD were evaluated after 7 and 21 days of CBD administration. Anxiety-related behavioral assessments were conducted using a thunderstorm noise-induced model of anxiety. Four different doses of CBD isolate (1, 2, 4 and 12 mg CBD/kg dog's body weight) were administered orally, as a liquid, once a day to fasted dogs. The primary anti-anxiety measures included blood cortisol levels, heart rate, distance traveled, head movements, global anxiety and scanning behavior.

[4] = tested on: noise-induced model of fear and anxiety; assay: Noise-induced (thunderstorm) model of fear and anxiety in dogs, single dose; assay type: in vivo, Beagle dogs
Procedure: A Noise-Induced Model for fear and anxiety was used to assess the anxiolytic properties of a cannabidiol formulation on dog subjects. An objective of this study is to determine the anxiolytic effectiveness of an orally dosed CBD enriched cannabinoid formulation at three dose levels (25 mg/kg, 12 mg/kg, and 4 mg/kg) as compared to a placebo control in a noise-induced model of fear and anxiety.
A preliminary health screen including veterinary examinations and CBC/clinical chemistry blood work analysis was first used to select thirty-two (32) Beagle dogs for the Baseline Screening phase of this study. […] A four-arm Williams design was used, with four treatment groups of 4 animals per group. Subjects were allocated to the treatment groups (n=4) balanced for sex, serum cortisol, and behavioural (activity) response. On Days 4, 11, 18, and 25 (n=16), dogs were tested on the thunderstorm procedure after administration of one of three dose levels of test article or placebo. Anxiety was assessed by both live monitoring of specific behaviours and through post-trial monitoring of recorded video files, by continuous recording of heart rate during the test, and by analyzing serum cortisol levels after the test. Subjects were dosed once during each arm of the study, approximately 4 hours prior to the thunderstorm test. Blood was taken twice during each arm of the study including baseline phase; once for the purpose of determining resting cortisol levels, collected two days before thunderstorm procedures, and once for the purpose of determining post-thunderstorm cortisol levels as well as blood levels CBD and 7-COOH-CBD, collected 5 minutes (±2 minutes) following the test. Both blood collections were taken at about same time of day. There was a 6-day washout period between treatment days for all subjects.
On the day of testing, each group received a single dose of their assigned treatment according to Table 7 followed by a 6-day washout period prior to the next assessment Animals were dosed 4 hours (±10 minutes) prior to each thunderstorm assessment, at the same time of day on each dosing day. Subjects received either placebo (MCT oil) or CBD extract diluted to the correct concentration of either 4, 12 or 25 mg/kg with appropriate volume of MCT oil to a final volume of 4 mL for each dose. The test article was administered orally by syringe with attention to complete delivery and retention of the intended dose according to standard operating procedures. In the event that a subject vomited or regurgitated within the first 30 minutes of administration, the product was re-administered and time of re-dose was recorded. […]
The thunderstorm test was performed on Study Day −5, 4, 11, 18, and 25; this took place in the open field arena. During the 9-minute task, the first three minutes was designated as the pre-thunder interval, during which the dogs were allowed to freely explore the room in the absence of any external stimuli. During minutes 4-6 (thunder interval) a recorded thunderstorm track was played over a stereo system at approximately 105 dB. Animal behaviour was audio and video recorded for a total of 9 minutes and the following parameters assessed:
1. Distance travelled (m): the distance the animal moves within the room will be tracked and recorded in meters.
2. […] All other behaviours were considered “active” behaviours.
No stimuli were provided over the last three minutes (minutes 7-9). All behavioural parameters were measured as described for the open field test. Video files of each session were recorded to DVD and archived with the study files. […]

[5] = Phase 1, 12 mg/kg CBD oral, n=4 dogs
[6] = Phase 1, 25 mg/kg CBD oral, n=4 dogs
[7] = all four phases combined, 25 mg/kg CBD oral, n=16 dogs, p=0.05

C=C(C)[C@@H]1CCC(C(=O)O)=C[C@H]1c1c(O)cc(CCCCC)cc1O [7-COOH-CBD]
7-COOH-CBD levels across the 4 dose levels ([1]; post-car ride, repeated measures ANOVA): highly significant effect of dose

C=C(C)[C@@H]1CCC(C)=C[C@H]1c1c(O)cc(CCCCC)cc1O [CBD, cannabidiol]
Dogs that lay down during the 10-minute car ride ([2]; Phase 1, 2 of 4 dogs at each of 4, 12, or 25 mg/kg CBD oral, placebo 0 of 4): 50% | Number of dogs across the CBD treatments who lay down during the car ride ([2]; Phase 1, CBD 4, 12, 25 mg/kg combined, placebo none of 4): 6 of 12 dogs | Mean heart rate, effect of treatment ([2]; baseline, placebo, 4, 12 and 25 mg/kg oral, pre-test, min 1-5, min 5-10 of car ride, repeated measures ANOVA): no other significant main effects or interactions | Post-car ride cortisol levels in female dogs ([2]; female dogs, CBD 4, 12, 25 mg/kg oral 4 h before car ride (FIG. 11)): decrease in cortisol levels | Cortisol response to car ride ([2]; high dose 25 mg/kg CBD oral): more effective in reducing the cortisol response than the placebo and low dose treatments | Cortisol response to car ride ([2]; medium dose 12 mg/kg CBD oral): more effective in reducing the cortisol response than the placebo and low dose treatments | Pre-car ride CBD levels as a function of previous dose ([1]; 7 days after previous dose, repeated measures ANOVA, 0.02 level): Previous dose effect was significant | Post-car ride CBD levels as a function of dose ([1]; oral 4, 12, 25 mg/kg CBD or placebo 4 h before car ride, non-parametric analysis of variance, p=0.0000): highly significant dose effect | Cortisol, day 21 vs day 7 ([3]; 1 and 2 mg CBD/kg oral once a day): greater decrease in cortisol on day 21 than day 7 | Visual scanning ([3]; Day 7, 1 mg/kg): most reduced | Global Anxiety Scores during thunder-noise ([3]; after 7 and 21 days of treatment, all groups): decreased | Thunderstorm-induced body movements ([3]; chronic CBD administration): generally decreased | Heart rate ([3]; chronic CBD treatment 1, 2, 4, 12 mg/kg oral once a day): not affected | Global Anxiety Scores during thunder-noise, group with greatest decrease ([3]; day 7, 2 mg/kg): greatest decreases | Head movements ([3]; day 7, two lowest CBD treatment groups (1 and 2 mg/kg)): decreased by day 7 | Global Anxiety Scores during thunder-noise, groups with greatest decrease ([3]; day 21, 1, 2 and 4 mg/kg): greatest decreases | Visual scanning ([3]; day 21, 1 and 2 mg/kg): most reduced | Head movements ([3]; day 21, all treatment groups): decline in head movements | Cortisol ([3]; lowest 3 doses (1, 2, 4 mg/kg) oral once a day, days 7 and 21): decline in cortisol | Anti-anxiety effects (stress biomarker, body movements, visual scanning, global anxiety scores) ([3]; three lower CBD doses (1, 2, 4 mg/kg) oral once a day): observable anti-anxiety effects | Distance travelled post-thunder (minutes 7-9), placebo vs CBD ([4]; 25 mg/kg oral 4 h before test, p=0.0445, LMM with treatment and order): significantly larger with placebo than 25 mg/kg | Inactivity frequency post-thunder, placebo vs CBD ([4]; 25 mg/kg oral, p=0.0245, LMM with treatment and order): significantly smaller with placebo than 25 mg/kg | Activity during minutes 1-3 of conditioned anxiety testing ([4]; CBD 4, 12, 25 mg/kg vs placebo): no significant differences | Distance travelled during the 3-minute post-thunder interval (mean±SD) [4, 5]: 3.9±3.9 m | Reduction of distance travelled during the 3-minute post-thunder interval vs placebo [4, 5]: 72% | Distance travelled during the 3-minute post-thunder interval (mean±SD) [4, 6]: 5.5±4.0 m | Distance travelled during the 3-minute thunderstorm noise (mean±SD) [4, 6]: 17.0±8.1 m | Reduction of distance travelled during the 3-minute post-thunder interval vs placebo [4, 6]: 61% | Reduction of distance travelled during the 3-minute thunderstorm noise vs placebo [4, 6]: 29% | Distance travelled during the 3-minute post-thunder interval (mean±SD) [4, 7]: 3.5±3.9 m | Reduction of distance travelled during the 3-minute post-thunder interval vs placebo [4, 7]: 65% | Inactivity, effect of dose ([4]; repeated measures ANOVA, pre-thunder, thunder, post-thunder, p value for dose effect 0.762): no other significant main effects or interactions
